Structures are written as SMILES.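 Values below derive from 48-hour exposures of cells grown in 96-well plates, with endpoints linearly interpolated between the two concentrations bracketing the appropriate inhibition level. GI50 marks 50% less growth. TGI: total growth inhibition.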

Eight molecules from PubChem BioAssay (NCI) can be followed below.

Test systems include UO-31 renal; HOP-92 NSCLC; SK-MEL-5 melanoma; OVCAR-5 ovarian; OVCAR-4 ovarian; MOLT-4 leukemia; SNB-75 CNS; SW-620 colon; SF-295 CNS.
What all share (assay): NCI tumour cell line growth inhibition, 48 h

Turning to `O=[N+]([O-])c1cccc(-c2nc(-c3ccc(Cl)cc3Cl)cn2-c2ccccc2)c1`, the GI50 in the test with UO-31 renal is 1.19 µM; in the test with HOP-92 NSCLC, 0.105 µM; in the test on SK-MEL-5 melanoma it was 6.78 µM; in the test on OVCAR-5 ovarian it was 3.54 µM; with OVCAR-4 ovarian, 0.58 µM; in the test with MOLT-4 leukemia, 3.21 µM. In addition, the GI50 with SNB-75 CNS was 0.509 µM; in the test on SW-620 colon it was 0.617 µM; with SF-295 CNS, 0.452 µM. The TGI in the test on UO-31 renal was 7.29 µM; with HOP-92 NSCLC, 22.7 µM; with SK-MEL-5 melanoma it was greater than 33.3 µM; in the test on OVCAR-5 ovarian it was 24.6 µM; with OVCAR-4 ovarian, 1.12 µM; with MOLT-4 leukemia it was greater than 33.3 µM. The TGI amounted to 1.34 µM in the test with SNB-75 CNS, 1.22 µM with SW-620 colon and 0.976 µM with SF-295 CNS.

With `O=C(O)c1cc2ccccc2c2c3c(ccc12)OCO3`, the GI50 with UO-31 renal is 116 µM; in the test on HOP-92 NSCLC it was 18.7 µM; in the test on SK-MEL-5 melanoma it was 133 µM; in the test on OVCAR-5 ovarian it was 279 µM; in the test with OVCAR-4 ovarian, 170 µM; in the test with MOLT-4 leukemia, 192 µM. Also, the GI50 is 77.8 µM in the test on SNB-75 CNS, 245 µM with SW-620 colon and 157 µM with SF-295 CNS. Moreover, the TGI in the test on UO-31 renal is 484 µM; in the test with HOP-92 NSCLC, 96.5 µM; in the test with SK-MEL-5 melanoma, 281 µM; with OVCAR-5 ovarian, greater than 1000 µM; in the test with OVCAR-4 ovarian it was 808 µM; in the test with MOLT-4 leukemia, 513 µM. The TGI in the test with SNB-75 CNS is 265 µM; in the test with SW-620 colon it was greater than 1000 µM; with SF-295 CNS it was 618 µM.

As for `Cc1ccc(C(=O)NCCCOc2ccc(N3C(N)=NC(N)=NC3(C)C)cc2Cl)cc1S(=O)(=O)F`, the GI50 is greater than 100 µM in the test with UO-31 renal; greater than 100 µM in the test with HOP-92 NSCLC; 4.78 µM with SK-MEL-5 melanoma; greater than 100 µM in the test on OVCAR-5 ovarian; 81.2 µM in the test with OVCAR-4 ovarian; greater than 100 µM in the test on MOLT-4 leukemia. The values for the GI50 with SNB-75 CNS, in the test with SW-620 colon and in the test on SF-295 CNS were 13.4 µM, 10.2 µM and greater than 100 µM, respectively. Besides, the TGI with UO-31 renal, with HOP-92 NSCLC, in the test on SK-MEL-5 melanoma, in the test on OVCAR-5 ovarian, in the test with OVCAR-4 ovarian and in the test on MOLT-4 leukemia was greater than 100 µM in each case. In addition, the TGI with SNB-75 CNS, in the test with SW-620 colon and in the test on SF-295 CNS was greater than 100 µM each time.

Take `CCCCCCCCCCCCCCCCCCNCc1ccc(Cl)cc1`: the GI50 was 1.6 µM with UO-31 renal; 1.83 µM in the test with HOP-92 NSCLC; 15.7 µM in the test with SK-MEL-5 melanoma; 2.65 µM in the test with OVCAR-5 ovarian; 1.99 µM in the test with OVCAR-4 ovarian; 1.99 µM in the test with MOLT-4 leukemia. Besides, the values for the GI50 with SNB-75 CNS, in the test with SW-620 colon and with SF-295 CNS were 9.15 µM, 1.87 µM and 12.6 µM, respectively. For the same molecule, the TGI with UO-31 renal stood at 3.45 µM; with HOP-92 NSCLC, 5.45 µM; in the test on SK-MEL-5 melanoma, 30.3 µM; in the test with OVCAR-5 ovarian, 12.1 µM; in the test on OVCAR-4 ovarian, 4.76 µM; with MOLT-4 leukemia, 4.55 µM. Further, the figures for the TGI in the test on SNB-75 CNS, with SW-620 colon and in the test on SF-295 CNS were 27.3 µM, 4.03 µM and 28.8 µM, respectively.

`Cc1ccc(Nc2cc(Cl)c([N+](=O)[O-])cc2[N+](=O)[O-])cc1`: the GI50 was 4.71 µM in the test on UO-31 renal; 2.69 µM with HOP-92 NSCLC; 3.19 µM with SK-MEL-5 melanoma; 6.62 µM with OVCAR-5 ovarian; 4.52 µM with OVCAR-4 ovarian; 3.87 µM with MOLT-4 leukemia. Moreover, the GI50 is 3.91 µM with SNB-75 CNS, 2.35 µM in the test with SW-620 colon and 14.4 µM with SF-295 CNS. For the same molecule, the TGI is 17.5 µM in the test on UO-31 renal; 9.48 µM in the test on HOP-92 NSCLC; 9.51 µM in the test with SK-MEL-5 melanoma; 20.9 µM in the test on OVCAR-5 ovarian; 16.2 µM in the test with OVCAR-4 ovarian; greater than 52.4 µM in the test with MOLT-4 leukemia. The TGI with SNB-75 CNS was found to be 17.5 µM; in the test with SW-620 colon, 6.82 µM; in the test on SF-295 CNS, 34 µM.

Consider `COCCOCCOCc1n(Cc2ccc3ccccc3c2)c2ccccc2[n+]1Cc1ccc2ccccc2c1`, for which the GI50 with UO-31 renal was 1.83 µM; in the test on HOP-92 NSCLC it was 0.149 µM; with SK-MEL-5 melanoma it was 0.216 µM; with OVCAR-5 ovarian, 0.927 µM; in the test on OVCAR-4 ovarian it was 0.231 µM; in the test on MOLT-4 leukemia, 0.693 µM. Moreover, the GI50 in the test on SNB-75 CNS is 0.236 µM; in the test with SW-620 colon, 0.624 µM; in the test on SF-295 CNS, 0.691 µM. Further, the TGI in the test with UO-31 renal came out at 4.58 µM; in the test with HOP-92 NSCLC, 0.829 µM; in the test on SK-MEL-5 melanoma, 0.544 µM; with OVCAR-5 ovarian, 2.26 µM; with OVCAR-4 ovarian it was 1.19 µM; in the test with MOLT-4 leukemia, 2.43 µM. Moreover, the TGI was found to be 1.31 µM with SNB-75 CNS, 2.2 µM in the test with SW-620 colon and 2.16 µM in the test with SF-295 CNS.

With `CCOC(=O)C(Cc1c[nH]c2cc(N(CCO)CCO)ccc12)(NC(C)=O)C(=O)OCC`, the GI50 with UO-31 renal is 673 µM; with HOP-92 NSCLC, greater than 1000 µM; in the test with OVCAR-5 ovarian it was greater than 1000 µM; in the test on OVCAR-4 ovarian, greater than 1000 µM; in the test with SW-620 colon, 398 µM; in the test on SF-295 CNS, greater than 1000 µM. Also, the TGI in the test with UO-31 renal, in the test with HOP-92 NSCLC, in the test with SK-MEL-5 melanoma, in the test with OVCAR-5 ovarian, with OVCAR-4 ovarian and in the test with SNB-75 CNS was greater than 1000 µM throughout. Besides, the TGI in the test with SW-620 colon and with SF-295 CNS was greater than 1000 µM throughout.

With `Cc1cc(C(=O)/C=C/c2ccc[nH]2)ccc1-n1ccc(C(F)(F)F)n1`, the GI50 in the test on UO-31 renal is 1.4 µM; in the test on HOP-92 NSCLC, 11.4 µM; with SK-MEL-5 melanoma, 12.1 µM; in the test on OVCAR-5 ovarian, greater than 100 µM; with OVCAR-4 ovarian it was 3.18 µM; in the test with MOLT-4 leukemia, 3.66 µM. The values for the GI50 in the test on SW-620 colon and with SF-295 CNS were 10.7 µM and 7.97 µM, respectively. The TGI was 2.72 µM in the test with UO-31 renal; greater than 100 µM in the test with HOP-92 NSCLC; 25.3 µM in the test on SK-MEL-5 melanoma; greater than 100 µM in the test on OVCAR-5 ovarian; greater than 100 µM with OVCAR-4 ovarian; greater than 100 µM in the test with MOLT-4 leukemia. Further, the TGI in the test on SW-620 colon and with SF-295 CNS was greater than 100 µM each time.
